Consider two molecules from PMC3631420 (Science translational medicine, 2012).

The conditions of data set [1]: cited from earlier work.
Data set [2] deals with β-catenin/TCF interaction. The settings on record: cited from earlier work.
For the next data set, the system named is CRC and MM. The settings on record: cited from earlier work.
Another data set deals with T1, GST-β-catenin (human, UniProt P35222 1-781).
T1 sequence (looked up): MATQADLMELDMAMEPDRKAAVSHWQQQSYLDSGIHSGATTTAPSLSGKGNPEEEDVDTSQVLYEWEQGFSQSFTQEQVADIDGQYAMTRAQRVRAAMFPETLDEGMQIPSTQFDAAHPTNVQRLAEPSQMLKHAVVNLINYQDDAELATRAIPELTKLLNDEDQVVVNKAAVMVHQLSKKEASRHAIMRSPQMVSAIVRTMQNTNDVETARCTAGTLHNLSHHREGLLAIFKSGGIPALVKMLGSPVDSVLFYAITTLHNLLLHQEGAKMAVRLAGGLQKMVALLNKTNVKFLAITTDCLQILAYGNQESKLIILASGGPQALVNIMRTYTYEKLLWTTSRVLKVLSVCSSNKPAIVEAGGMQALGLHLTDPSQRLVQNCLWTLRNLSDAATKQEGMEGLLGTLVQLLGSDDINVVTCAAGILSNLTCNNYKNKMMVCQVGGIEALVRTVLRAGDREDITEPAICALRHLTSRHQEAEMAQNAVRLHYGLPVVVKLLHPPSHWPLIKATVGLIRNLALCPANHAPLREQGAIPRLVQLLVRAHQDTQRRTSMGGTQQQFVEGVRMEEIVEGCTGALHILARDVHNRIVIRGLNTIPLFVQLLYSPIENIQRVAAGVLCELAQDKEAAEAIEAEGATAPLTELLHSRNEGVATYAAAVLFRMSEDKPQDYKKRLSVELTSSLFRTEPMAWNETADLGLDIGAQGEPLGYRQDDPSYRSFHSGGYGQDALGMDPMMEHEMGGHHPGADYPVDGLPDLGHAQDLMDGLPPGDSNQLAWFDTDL
Kind of data set: pull-down.

On to PKF115-584, for which the “toxicity in treated mice” value in data set [1] is “induced severe bone marrow hypoplasia, anemia, and generalized wasting”. Further, the Wnt-specific transcriptional activity entry in data set [2] is given as “blocked Wnt-specific transcriptional activity”. In addition, the “growth of CRC and MM” value in the data set with CRC and MM was “reduced the growth”.

B1: His-BCL9 (residues 243–469) (domain or fragment, human, UniProt O00512 243-469, looked up)
chain: NQDQNSSQNTRLQPTPPIPAPAPKPAAPPRPLDRESPGVENKLIPSVGSPASSTPLPPDGTGPNSTPNNRAVTPVSQGSNSSSADPKAPPPPPVSSGEPPTLGENPDGLSQEQLEHRERSLQTLRDIQRMLFPDEKEFTGAQSGGPQQNPGVLDGPQKKPEGPIQAMMAQSQSLGKGPGPRTDVGAPFGPQGHRDVPFSPDEMVPPSMNSQSGTIGPDHLDHMTPEQ
Take B1: the binding result with GST-β-catenin is reported as “binds”.
